The source of these data is ChEMBL document CHEMBL3400119, “Triazole-containing N-acyl homoserine lactones targeting the quorum sensing system in Pseudomonas aeruginosa” (Bioorg Med Chem, 2015).

A short description of experiment [1]: Antagonist activity at luxI in Escherichia coli harboring luxI-gfp gene assessed as inhibition of 3-oxo-C6-HSL-induced quorum sensing by green fluorescence protein reporter assay. Background: A reporter such as luciferase makes a cellular process visible.
Experiment [2] can be described thus: Agonist activity at lasB in Escherichia coli harboring lasB-gfp gene by green fluorescence protein reporter assay.
Another experiment deals with Pseudomonas aeruginosa. In words: (§1) Antagonist activity at rhlA in Pseudomonas aeruginosa harboring rhlA-gfp gene assessed as inhibition of […]-induced quorum sensing by green fluorescence protein reporter assay.
A short description of experiment [3]: as §1.
The target in experiment [4] is Elastase (Pseudomonas aeruginosa (strain ATCC 15692 / PAO1 / 1C / PRS 101 / LMG12228)) (UniProt P14756). In words: Antagonist activity at lasB in Pseudomonas aeruginosa harboring lasB-gfp gene assessed as inhibition of […]-induced quorum sensing by green fluorescence protein reporter assay.
Sequence of Elastase (Pseudomonas aeruginosa (strain ATCC 15692 / PAO1 / 1C / PRS 101 / LMG12228)) (P14756 198-498 limits assumed): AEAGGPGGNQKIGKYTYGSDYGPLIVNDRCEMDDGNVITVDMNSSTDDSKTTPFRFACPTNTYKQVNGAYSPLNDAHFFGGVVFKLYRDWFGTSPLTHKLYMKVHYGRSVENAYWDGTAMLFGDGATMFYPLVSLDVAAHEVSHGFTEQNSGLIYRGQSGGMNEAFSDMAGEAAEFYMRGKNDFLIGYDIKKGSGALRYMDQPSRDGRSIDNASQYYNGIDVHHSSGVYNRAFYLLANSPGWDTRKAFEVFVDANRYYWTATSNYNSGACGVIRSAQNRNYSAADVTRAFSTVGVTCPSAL

Activity calls are given as the source filed them. The rule behind the calls is not given here.

The IC50 is the concentration that inhibits the measured activity by half. Broadly, the EC50 is the concentration that produces a half-maximal response. Low values mean higher potency in that assay, high ones lower potency in that assay. For the molecule `O=Cc1cccc(-n2cc(CCC(=O)N[C@H]3CCOC3=O)nn2)c1`, the IC50 in experiment [1] came to 5 µM. The same molecule showed an EC50 in experiment [2] of 71 µM. Further, the inhibition result in the experiment with Pseudomonas aeruginosa was “inactive”.

As to `[N-]=[N+]=Nc1ccc(C(=O)N[C@H]2CCOC2=O)cc1`, the IC50 in experiment [1] came out at 244 µM. The inhibition result in the experiment on Pseudomonas aeruginosa was “inactive”.

In turn, `CCCCCc1cn(CC(=O)N[C@H]2CCOC2=O)nn1` came in with an EC50 in experiment [2] of 1 µM.

On to `O=C(Cn1cc(C2CCCC2)nn1)N[C@H]1CCOC1=O`, for which the IC50 in experiment [1] was 50 µM; in experiment [3], 898 µM. In experiment [2], this molecule displayed an EC50 of 3 µM.

On to `Nc1cccc(-n2cc(CCC(=O)N[C@H]3CCOC3=O)nn2)c1`, for which, in experiment [2], a half-maximal response (EC50) required 2 µM.

For the molecule `O=C(Cn1cc(CSc2ccccc2)nn1)N[C@H]1CCOC1=O`, the IC50 in experiment [1] was determined as 602 µM. The molecule further returned a concentration giving a half-maximal response (EC50) in experiment [2] of 2 µM. Also, the inhibition result with Pseudomonas aeruginosa was “inactive”.

On to `Nc1ccc(-n2cc(-c3ccc(C(=O)N[C@H]4CCOC4=O)cc3)nn2)cc1`, for which the IC50 in experiment [1] is 95 µM. The inhibition entry (in experiment [4]; in the experiment with Pseudomonas aeruginosa) was “inactive” in each case.

`O=C(Cn1cc(C2CC2)nn1)N[C@H]1CCOC1=O`: the IC50 in experiment [1] was found to be 88 µM; in experiment [3] it was 799 µM.

In the case of `O=C(Cn1cc(CC2CCCCC2)nn1)N[C@H]1CCOC1=O`, in experiment [2], the EC50 turned out to be 8 µM.

Regarding `CCCCc1cn(CC(=O)N[C@H]2CCOC2=O)nn1`, in experiment [1], the IC50 is 751 µM. The molecule also yielded an EC50 in experiment [2] of 57 µM. Further, the inhibition result (in experiment [4]; with Pseudomonas aeruginosa) was “inactive” in each case.

As to `[N-]=[N+]=Nc1cccc(C(=O)N[C@H]2CCOC2=O)c1`, in experiment [1], the IC50 worked out at 223 µM. In addition, the inhibition entry (in experiment [4]; in the experiment on Pseudomonas aeruginosa) was “inactive” each time.

Take `O=C(Cn1cc(-c2ccccc2)nn1)N[C@H]1CCOC1=O`: the IC50 in experiment [1] is 192 µM. The inhibition entry (in experiment [4]; with Pseudomonas aeruginosa) was “inactive” each time.

In the case of `O=C(Cn1cc(C2CCCCC2)nn1)N[C@H]1CCOC1=O`, in experiment [1], the IC50 was determined as 342 µM. In experiment [2], this molecule came in with an EC50 of 44 µM. In addition, in the experiment on Pseudomonas aeruginosa, the inhibition result was “inactive”.

Consider `CCCc1cn(CC(=O)N[C@H]2CCOC2=O)nn1`, for which the IC50 in experiment [1] was 71 µM; in experiment [3], 927 µM.

Take `CCCCCCc1cn(CC(=O)N[C@H]2CCOC2=O)nn1`: in experiment [1], the IC50 stood at 578 µM. The EC50 in experiment [2] turned out to be 12 µM. Further, in the experiment on Pseudomonas aeruginosa, the inhibition entry is “inactive”.

Turning to `O=C(Cn1cc(-c2ccsc2)nn1)N[C@H]1CCOC1=O`, the IC50 amounted to 55 µM in experiment [1] and 1030 µM in experiment [3].
